According to DBAASP:
In brackets after ≈: the same amount, converted by molar mass. One block for each molecule: values may come before it.

Tests used:
Assay in all cases: ≥ marks a high value that may be exact or a test limit, other limits are often not marked, values filed in µg/mL are converted to µM
Salmonella typhimurium = tested on: Salmonella typhimurium
Escherichia coli O157 = tested on: Escherichia coli O157
[1] = tested on: Staphylococcus aureus ATCC 43300
[2] = tested on: Escherichia coli ATCC 25404
[3] = tested on: Staphylococcus aureus ATCC 29213
[4] = tested on: Micrococcus luteus ATCC 10420
[5] = tested on: Staphylococcus epidermidis ATCC 9709
Listeria monocytogenes = tested on: Listeria monocytogenes
[6] = tested on: Pseudomonas aeruginosa ATCC 27853
[7] = tested on: Escherichia coli ATCC 25726
[8] = tested on: Candida albicans ATCC 90028
[9] = tested on: Staphylococcus epidermidis RP62A/1
[10] = tested on: Staphylococcus epidermidis RP62A
[11] = tested on: Staphylococcus aureus ATCC 25923
[12] = tested on: Stenotrophomonas maltophilia B32/4
[13] = tested on: Acinetobacter baumannii NM8
[14] = tested on: Klebsiella pneumoniae ATCC 700603
[15] = tested on: Staphylococcus aureus CCARM 3108
[16] = tested on: Listeria monocytogenes KCTC 3710
[17] = tested on: Staphylococcus aureus CCARM 3089
[18] = tested on: Salmonella typhimurium CCARM 8009
[19] = tested on: Candida albicans CCARM 14007
[20] = tested on: Salmonella typhimurium CCARM 8013
[21] = tested on: Salmonella typhimurium CCARM 8007
[22] = tested on: Pseudomonas aeruginosa KCTC 1637
[23] = tested on: Staphylococcus aureus KCTC 1621
[24] = tested on: Escherichia coli KCTC 1682
[25] = tested on: Staphylococcus aureus CCARM 3126
[26] = tested on: Staphylococcus aureus CCARM 3114
[27] = tested on: Staphylococcus aureus CCARM 3090
[28] = tested on: Candida albicans CCARM 14001
[29] = tested on: Escherichia coli CCARM 1229
[30] = tested on: Salmonella typhimurium KCTC 1926
[31] = tested on: Bacillus subtilis KCTC 1918
[32] = tested on: Candida albicans KCTC 7270
[33] = tested on: Escherichia coli CCARM 1238
[34] = tested on: Candida albicans CMCC 98001
[35] = tested on: Alcaligenes faecalis CGMCC 1.924
[36] = tested on: Enterococcus faecalis CGMCC 1.100
[37] = tested on: Micrococcus luteus AB206228
[38] = tested on: Bacillus cereus CMCC 1.126
[39] = tested on: Pseudomonas aeruginosa CMCC 10104
[40] = tested on: Klebsiella aerogenes CGMCC 1.2021
[41] = tested on: Penicillium sp. ATCC 30106
[42] = tested on: Aspergillus flavus CGMCC 3.6433
[43] = tested on: Acetobacterium wieringae CGMCC 1.2033
[44] = tested on: Tetragenococcus halophilus CGMCC 1.2492
[45] = tested on: Proteus vulgaris CGMCC 1.1651
[46] = tested on: Saccharomyces cerevisiae CGMCC 2.1619
[47] = tested on: Providencia rettgeri CMCC 49256
[48] = tested on: Escherichia coli CGMCC 1.1369
[49] = tested on: Bacillus subtilis CGMCC 1.88
[50] = tested on: Corynebacterium glutamicum CGMCC 1.818
[51] = tested on: Beauveria bassiana CGMCC 3.3576
[52] = tested on: Enterobacter cloacae CGMCC 1.58
[53] = tested on: Salmonella typhimurium CGMCC 1.1174
[54] = tested on: Bacillus thuringiensis serovar israelensis H14

- MIC (Salmonella typhimurium): ≥ 64 µM
- MIC (Escherichia coli O157): ≥ 64 µM
- MIC [1]: 4 µM (≈ 5.72 µg/mL)
- MIC [2]: ≥ 64 µM
- MIC [3]: 4 µM (≈ 5.72 µg/mL)
- MIC [4]: 2 µM (≈ 2.86 µg/mL)
- MIC [5]: 4 µM (≈ 5.72 µg/mL)
- MIC (Listeria monocytogenes): 8 µM (≈ 11.4 µg/mL)
Structure (SMILES): CC(C)C[C@H](NC(=O)[C@H](CC(C)C)NC(=O)[C@H](CCCCN)NC(=O)[C@H](CO)NC(=O)[C@H](CC(C)C)NC(=O)[C@H](C)NC(=O)[C@H](Cc1cnc[nH]1)NC(=O)[C@H](Cc1ccccc1)NC(=O)[C@H](CC(C)C)NC(=O)[C@H](C)NC(=O)CNC(=O)[C@H](CC(C)C)NC(=O)[C@@H](N)Cc1ccccc1)C(=O)O [FLGALFHALSKLL]

- MIC [6]: 128 µM (≈ 212 µg/mL)
- MIC [7]: ≥ 32 µM
- MIC [8]: ≥ 32 µM
- MIC [9]: 16 µM (≈ 26.5 µg/mL)
- MIC [10]: ≥ 32 µM
- MIC [11]: 64 µM (≈ 106 µg/mL)
- MIC [12]: ≥ 32 µM
- MIC [13]: 16 µM (≈ 26.5 µg/mL)
- MIC [14]: 128 µM (≈ 212 µg/mL)
Structure (SMILES): CC[C@H](C)[C@H](N)C(=O)N[C@@H](CC(C)C)C(=O)N[C@@H](CCCCN)C(=O)N[C@@H](CCCCN)C(=O)N[C@@H](CC(C)C)C(=O)N[C@@H](CC(C)C)C(=O)N[C@@H](CO)C(=O)N[C@H](C(=O)N[C@@H](C)C(=O)N[C@@H](C)C(=O)NCC(=O)N[C@@H](CC(C)C)C(=O)N[C@@H](CC(C)C)C(=O)N[C@@H](CO)C(=O)N[C@@H](CC(N)=O)C(=O)N[C@@H](CC(C)C)C(N)=O)[C@@H](C)O [ILKKLLSTAAGLLSNL]

- MIC [15]: ≥ 200 µM
- MIC [16]: ≥ 200 µM
- MIC [17]: ≥ 200 µM
- MIC [18]: ≥ 200 µM
- MIC [19]: ≥ 128 µM
- MIC [20]: ≥ 200 µM
- MIC [21]: ≥ 309 µM
- MIC [22]: ≥ 200 µM
- MIC [23]: ≥ 200 µM
- MIC [24]: ≥ 200 µM
- MIC [25]: ≥ 200 µM
- MIC [26]: ≥ 200 µM
- MIC [27]: ≥ 200 µM
- MIC [28]: ≥ 128 µM
- MIC [29]: ≥ 200 µM
- MIC [30]: ≥ 200 µM
- MIC [31]: ≥ 200 µM
- MIC [32]: ≥ 128 µM
- MIC [33]: ≥ 200 µM
Structure (SMILES): NCCCC[C@H](NC(=O)[C@H](Cc1c[nH]c2ccccc12)NC(=O)[C@@H](N)CCCCN)C(=O)N[C@@H](Cc1c[nH]c2ccccc12)C(N)=O [KWKW]

- MIC [34]: ≥ 50 µM
- MIC [35]: 3.1 µM (≈ 8.95 µg/mL)
- MIC [36]: 25 µM (≈ 72.2 µg/mL)
- MIC [37]: 3.1 µM (≈ 8.95 µg/mL)
- MIC [38]: 6.2 µM (≈ 17.9 µg/mL)
- MIC [39]: 6.2 µM (≈ 17.9 µg/mL)
- MIC [40]: 12.5 µM (≈ 36.1 µg/mL)
- MIC [41]: 3.1 µM (≈ 8.95 µg/mL)
- MIC [42]: 3.1 µM (≈ 8.95 µg/mL)
- MIC [43]: 3.1 µM (≈ 8.95 µg/mL)
- MIC [44]: 3.1 µM (≈ 8.95 µg/mL)
- MIC [45]: 6.2 µM (≈ 17.9 µg/mL)
- MIC [46]: ≥ 50 µM
- MIC [47]: 6.2 µM (≈ 17.9 µg/mL)
- MIC [48]: 25 µM (≈ 72.2 µg/mL)
- MIC [49]: 12.5 µM (≈ 36.1 µg/mL)
- MIC [50]: 3.1 µM (≈ 8.95 µg/mL)
- MIC [51]: 6.2 µM (≈ 17.9 µg/mL)
- MIC [52]: ≥ 50 µM
- MIC [53]: 12.5 µM (≈ 36.1 µg/mL)
- MIC [54]: 12.5 µM (≈ 36.1 µg/mL)
Structure (SMILES): CC[C@H](C)[C@H](NC(=O)[C@H](Cc1ccccc1)NC(=O)[C@H](CCCCN)NC(=O)[C@H](C)NC(=O)[C@@H](NC(=O)[C@H](CO)NC(=O)[C@H](CCCCN)NC(=O)[C@H](CCSC)NC(=O)[C@H](C)NC(=O)[C@H](CCCCN)NC(=O)[C@H](Cc1ccccc1)NC(=O)[C@H](Cc1c[nH]c2ccccc12)NC(=O)CNC(=O)[C@H](CCCCN)NC(=O)[C@@H](N)CCCN=C(N)N)[C@@H](C)CC)C(=O)N[C@@H](C)C(=O)N[C@@H](CCCCN)C(=O)N[C@@H](CCC(=O)O)C(=O)N[C@@H](CCCCN)C(=O)N[C@@H](CC(C)C)C(=O)N[C@@H](CCCCN)C(=O)N[C@@H](CCC(=O)O)C(=O)N[C@@H](Cc1cnc[nH]1)C(=O)N[C@@H](CC(C)C)C(=O)O [RKGWFKAMKSIAKFIAKEKLKEHL]
